The subject of assay [1] is ykt6. Briefly: FTI treatment of DASYN53 mice: membrane-associated ykt6 and SNARE complexes. Type of assay: in vivo. The following applies: DASYN53 mice 12-14 months; i.p. 0.9 mg/kg, 26d; olfactory bulbs, midbrain. The method, then:
FIGS. 7A, 7B, 7C, 7D, and 7E. FTI treatment restores functional membrane-associated ykt6 complexes in DASYN53 mice. 7A) Immunohistochemistry in the midbrain of mice showing ykt6, tyrosine hydroxylase (TH), NeuN, and nuclei (DAPI). Scale bar, 50 μm. 7B) Ykt6 membrane shift analysis in olfactory bulbs of FTI (LNK-754)-injected DASYN53 mice (12-14 months, i.p. 26d, 0.9 mg/kg) (n=5, non-transgenic (nTg)+veh; n=4, DASYN53+veh; n=4 DASYN53+FTI). GAPDH and sec22b are loading controls. 7C) SEC/western blot analysis of midbrains of FTI-treated DASYN53 mice. Inputs are shown on the left. NSE is a loading control. […] (n=3, nTg+veh; n=4, DASYN53+veh; n=4 DASYN53+FTI). 7D) Quantification of complexes from SEC in 7C. 7E) GCase maturation was assessed in midbrain lysates by endo H resistance (n=4, nTg+veh; n=4, DASYN53+veh; n=4 DASYN53+FTI). For all quantifications, each point represents a measurement from an individual animal. Values are the mean+/−SEM, *p<0.05; **p<0.01, ***p<0.001, ANOVA with Tukey's post-hoc test.
Treatment of C57Bl/6 and DASYN53 mice with farnesyltransferase inhibitors. 3 mo old C57BL6 mice were i.p. injected daily with 0.9 mg/kg LNK-754 that was formulated in a vehicle of 0.5% sodium carboxymethylcellulose and filtered before use for 14 days. DASYN53 mice were i.p. injected daily with 0.9 mg/kg LNK-754 as above. […]

For assay [2], the system named is ykt6 SNARE complexes. Briefly: Co-IP of GFP-ykt6 SNARE assemblies in FTI-treated SH-SY5Y cells. Particulars: SH-SY5Y cells expressing GFP-ykt6 wt; 5 nM, 5d. In kind it is cell-based, human. The method, then: FIGS. 5A, 5B, 5C, 5D, 5E, 5F, and 5G. Reducing farnesyl-ykt6 enhances SNARE assembly and improves the lysosomal targeting of GCase. 5A) Ykt6 membrane shift analysis of SH-SY5Y cells expressing GFP-ykt6 wt or CS (n=3). 5B) Co-IP of GFP-ykt6 and bet1 in A53T iPSn (n=3). 5C) Ykt6 membrane shift analysis in FTI-treated SH-SY5Y wt a-syn cells or A53T iPSn (5 nM farnesyltransferase inhibitors (FTI) LNK-754 (FTI-1) or LNK-3248 (FTI-2) for 5 days) (n=4). Sec22b was measured to assess specificity. 5D) SEC/western blot of FTI-1 treated SH-SY5Y cells. Quantification is shown below. 5E) Co-IP of GFP-ykt6 wt or mutant ykt6-SS, (cannot be palmitoylated or farnesylated) in FTI-treated SHSY5Y cells (5 nM LNK-754, 5d) (n=2). 5F) Immunofluorescence of GCase and LAMP2A in FTI-treated H4 a-syn cells transfected with scrambled (scrb) or ykt6 shRNA (n=3). Scale bar=10 um. 5G) GCase maturation analysis in FTI-treated A53T iPSn by endo H (n=3). Values are the mean+/−SEM, *p<0.05.
To co-IP ykt6 SNARE assemblies, approximately 106-107 cells expressing GFP-tagged YKT6, were harvested in 1 ml of PBS, scraped off the plate and transferred to centrifuge tubes. The cells were subjected to centrifugation 200×g for 5 m at 4° C. […] Eluates were analyzed by western blot as described below. The samples were not analyzed in a blinded manner.

From patent US12226410B2, “Methods for enhancing cellular clearance of pathological molecules via activation of the cellular protein ykt6” (NORTHWESTERN UNIVERSITY, priority 2019, dated 2025) come the findings set out here.

Consider `C#Cc1cccc(-c2cc(=O)n(C)c3ccc([C@](O)(c4ccc(Cl)cc4)c4cncn4C)cc23)c1` [LNK-754], for which the “reduced membrane-associated ykt6 and SNARE complexes of DASYN53 mice” value in assay [1] was “reversed these effects”. The “ykt6 SNARE complexes by co-IP” value in assay [2] is “increased ykt6 SNARE complexes”.
